Assay [1] deals with T1, Thromboxane A2 receptor (Homo sapiens, UniProt P21731).
T1 sequence (P21731 whole entry): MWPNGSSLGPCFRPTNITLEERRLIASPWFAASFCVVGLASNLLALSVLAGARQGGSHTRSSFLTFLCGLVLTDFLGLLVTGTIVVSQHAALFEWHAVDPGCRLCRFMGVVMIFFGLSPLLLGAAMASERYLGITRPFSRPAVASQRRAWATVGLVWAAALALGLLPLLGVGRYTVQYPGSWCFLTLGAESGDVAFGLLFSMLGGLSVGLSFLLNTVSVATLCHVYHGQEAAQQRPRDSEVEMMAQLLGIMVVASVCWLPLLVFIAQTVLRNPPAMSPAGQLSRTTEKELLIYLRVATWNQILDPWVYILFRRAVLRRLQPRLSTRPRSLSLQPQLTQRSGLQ

The species entered for assay [2] is Homo sapiens. Kind of assay: tissue or blood. Type of assay: functional, organism-based. The settings on record: Plasma.
Description: Inhibition of collagen-induced platelet aggregation in human platelet-rich plasma.
The target of assay [3] is T2, Thromboxane-A synthase (Homo sapiens, UniProt P24557).
T2 sequence (P24557 whole entry): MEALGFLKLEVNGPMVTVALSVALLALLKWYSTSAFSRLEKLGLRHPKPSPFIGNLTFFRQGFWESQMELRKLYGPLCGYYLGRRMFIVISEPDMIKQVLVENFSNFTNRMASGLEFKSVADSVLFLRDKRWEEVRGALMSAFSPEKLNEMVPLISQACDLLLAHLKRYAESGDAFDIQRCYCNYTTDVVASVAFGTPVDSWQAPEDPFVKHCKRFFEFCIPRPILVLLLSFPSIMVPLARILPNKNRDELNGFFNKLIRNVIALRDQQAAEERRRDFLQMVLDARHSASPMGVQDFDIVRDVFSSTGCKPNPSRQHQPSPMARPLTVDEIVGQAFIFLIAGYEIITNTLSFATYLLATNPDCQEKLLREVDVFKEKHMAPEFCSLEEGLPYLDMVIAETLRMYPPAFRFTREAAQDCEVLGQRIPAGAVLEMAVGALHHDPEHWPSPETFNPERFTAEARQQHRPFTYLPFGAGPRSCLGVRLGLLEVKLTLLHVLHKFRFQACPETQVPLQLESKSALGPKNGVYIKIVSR
Description: Inhibition test of thromboxane A2 synthetase in human gel-filtered platelets.

“And” between values parts separate entries of the source, which are not always exact repeats. Equal entries are not always repeated. Where only a bound is given, the exact number is not on record here.

Consider `O=C(O)c1cccc(/C=C(\c2ccc(CCNS(=O)(=O)c3ccc(Cl)cc3)cc2)c2cccnc2)c1`, for which the IC50 (in general, the concentration needed to halve the response being measured) in assay [1] is 100 nM; in assay [3], 4 nM. Also, a half-maximal effect in assay [2] (EC50) was put at 30000 nM.
Consider `O=C(O)CCC/C=C(\c1ccc(CCN(Cc2ccc(C(=O)O)cc2)S(=O)(=O)c2ccc(Cl)cc2)cc1)c1cccnc1`, for which the IC50 was 28 nM in assay [1] and 46 nM in assay [3]. Moreover, the EC50 (as a rule, the concentration giving half of the maximal effect) in assay [2] is over 100000 nM.
On the same counts, the results for `O=C(O)CCC/C=C(/c1cccnc1)c1cccc(NS(=O)(=O)c2ccc(Cl)cc2)c1` are 60 nM, 7 nM and 40000 nM.
`CN(CCc1ccc(/C(=C\CCCC(=O)O)c2cccnc2)cc1)S(=O)(=O)c1ccc(Cl)cc1`: the IC50 is 25 nM in assay [1] and 15 nM in assay [3]. The same compound registered an EC50 in assay [2] of 24000 nM.
Consider `O=C(O)CCC/C=C(\c1ccc(CCN(CCC(=O)O)S(=O)(=O)c2ccc(Cl)cc2)cc1)c1cccnc1`, for which the IC50 in assay [1] amounted to 120 nM; in assay [3], 100 nM. The compound also had an EC50 in assay [2] of over 100000 nM.
For `COc1ccc(S(=O)(=O)NCCc2ccc(/C(=C\CCCC(=O)O)c3cccnc3)cc2)cc1`, the IC50 in assay [1] amounted to 52 nM; in assay [3], 5 nM. For the same compound, the midpoint of the response in assay [2], the EC50, lay at 10000 nM.
For the compound `O=C(O)CCCCO/N=C(/c1cccnc1)c1cccc(C(F)(F)F)c1` [RIDOGREL], the IC50 in assay [1] is 1700 nM and 5200 nM; in assay [3], 4 nM and 8 nM. In assay [2], this compound displayed an EC50 of 16000 nM.
Turning to `O=C(O)CCC/C=C(\c1ccc(CCNS(=O)(=O)c2ccc(Cl)cc2)cc1)c1cccnc1` [SAMIXOGREL], the results for the IC50 in assay [1] and in assay [3] were 19 nM and 4 nM, respectively. Besides, in assay [2], a half-maximal response (EC50) required 1000 nM.
